Test results taken from ChEMBL document CHEMBL1201862, “PubChem BioAssay data set” (2004).
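Where inhibition never reached the appropriate level, the endpoint shown equals the highest concentration tested. Otherwise, values were interpolated linearly from a five-concentration, 48-hour dose response in 96-well plates. Abbreviation: GI50, concentration required for 50% inhibition of growth.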 The source made the active and inactive calls. No stated cut-off is given here; in the data, active = GI50 up to about 1.1 µM and inactive = higher.

Tests used:
Assay in all cases: NCI-60 cell line screen, 48 h
[1] = system: DLD-1
[2] = system: DMS-114
[3] = system: DMS-273
[4] = system: HOP-18
[5] = system: KM-20L2
[6] = system: LXFL 529
[7] = system: SNB-78
[8] = system: XF498
[9] = system: RXF 631

SMILES	GI50 [1]	GI50 [2]	GI50 [3]	GI50 [4]	GI50 [5]	GI50 [6]	GI50 [7]	GI50 [8]	GI50 [9]
O=P1(O)c2ccccc2Nc2cc(C(F)(F)F)ccc21	> 100 µM (inactive)	> 100 µM (inactive)	> 100 µM (inactive)	> 100 µM (inactive)	> 100 µM (inactive)	> 100 µM (inactive)	> 100 µM (inactive)	> 100 µM (inactive)	–
COc1ccc2c3ccc4c(c3n(C)c2c1)C(=O)C=CC4=O	15.3 µM (inactive)	–	34.7 µM (inactive)	36.7 µM (inactive)	> 100 µM (inactive)	15.2 µM (inactive)	69.2 µM (inactive)	24.4 µM (inactive)	–
CC(C)=CCCC1(C)C=Cc2c(c(C)cc3c2[nH]c2cc(O)ccc23)O1 (stereo not given)	> 25 µM (inactive)	> 25 µM (inactive)	> 25 µM (inactive)	7.36 µM (inactive)	> 25 µM (inactive)	> 25 µM (inactive)	–	> 25 µM (inactive)	–
COc1ccc(/C=C/COC(C)=O)cc1OC	–	> 100 µM (inactive)	> 100 µM (inactive)	–	> 100 µM (inactive)	> 100 µM (inactive)	> 100 µM (inactive)	–	–
Cc1ccc([S+]([O-])c2ccccc2[N+](=O)[O-])cc1 (stereo not given)	> 100 µM (inactive)	36.5 µM (inactive)	62.2 µM (inactive)	–	–	–	> 100 µM (inactive)	–	35 µM (inactive)
O=C(/C=C/c1ccccc1O)C(c1ccccc1)c1ccccc1	> 100 µM (inactive)	63.2 µM (inactive)	> 100 µM (inactive)	> 100 µM (inactive)	> 100 µM (inactive)	> 100 µM (inactive)	> 100 µM (inactive)	> 100 µM (inactive)	> 100 µM (inactive)
C#CCn1c(=O)[nH]c(=O)c2cccnc21	> 100 µM (inactive)	> 10 µM (inactive)	> 100 µM (inactive)	63.5 µM (inactive)	> 100 µM (inactive)	> 100 µM (inactive)	> 100 µM (inactive)	> 100 µM (inactive)	> 100 µM (inactive)
COc1cc(C2c3cc4c(cc3[C@@H](Nc3ccc(C#N)cc3)C3COC(=O)[C@H]23)OCO4)cc(OC)c1O (stereo not given in full)	1.27 µM (inactive)	0.977 µM (active)	–	1.16 µM (inactive)	2.33 µM (inactive)	–	3.03 µM (inactive)	3.2 µM (inactive)	–
CCOC(=O)C(C)(C)Oc1ccc(/C=C/C(=O)c2ccc(Cl)cc2)cc1	14.1 µM (inactive)	17.4 µM (inactive)	16.7 µM (inactive)	–	17.8 µM (inactive)	15.8 µM (inactive)	–	18.8 µM (inactive)	19.5 µM (inactive)
c1ccc2c(c1)C1=NCCN1c1ccccc1-2	1.77 µM (inactive)	–	1.74 µM (inactive)	2.59 µM (inactive)	2.92 µM (inactive)	3.06 µM (inactive)	4 µM (inactive)	–	2.77 µM (inactive)
O=C(O)C(CS)Nc1c2ccccc2nc2ccccc12 (stereo not given)	78.9 µM (inactive)	27.7 µM (inactive)	34.6 µM (inactive)	–	49.8 µM (inactive)	> 100 µM (inactive)	–	24.9 µM (inactive)	–
O=C1CCCC(O)=C1SC1=C(O)CCCC1=O	35.2 µM (inactive)	–	> 100 µM (inactive)	> 100 µM (inactive)	–	–	> 100 µM (inactive)	–	> 100 µM (inactive)
COc1ccc2c(c1)CCc1c(C(C)=O)c3ccccc3n1C2	42.4 µM (inactive)	31.7 µM (inactive)	33 µM (inactive)	58.6 µM (inactive)	–	12.1 µM (inactive)	52 µM (inactive)	12.9 µM (inactive)	42.1 µM (inactive)
CC(=O)n1cc(CC(C)O)c(=O)[nH]c1=O (stereo not given)	> 100 µM (inactive)	> 100 µM (inactive)	> 100 µM (inactive)	> 100 µM (inactive)	> 100 µM (inactive)	> 100 µM (inactive)	> 100 µM (inactive)	> 100 µM (inactive)	> 100 µM (inactive)
CS(=O)(=O)C1S(=O)(=O)OCCOS1(=O)=O	> 100 µM (inactive)	> 100 µM (inactive)	> 100 µM (inactive)	73.6 µM (inactive)	> 100 µM (inactive)	> 100 µM (inactive)	> 100 µM (inactive)	> 100 µM (inactive)	> 100 µM (inactive)
CC#CCC1CCC(OCC)=CC1=O (stereo not given)	> 100 µM (inactive)	> 100 µM (inactive)	> 100 µM (inactive)	> 100 µM (inactive)	> 100 µM (inactive)	> 100 µM (inactive)	> 100 µM (inactive)	> 100 µM (inactive)	> 100 µM (inactive)
CC(C)(C)c1ccc2c(c1)S(=O)(=O)Nc1cccc(c1)NS(=O)(=O)c1cc(C(C)(C)C)ccc1OCCOCCO2	> 100 µM (inactive)	> 100 µM (inactive)	> 100 µM (inactive)	> 100 µM (inactive)	–	–	> 100 µM (inactive)	–	> 100 µM (inactive)
OC1OC2COC(c3ccccc3)OC2C(O)C1O (stereo not given)	> 100 µM (inactive)	> 100 µM (inactive)	> 100 µM (inactive)	> 100 µM (inactive)	> 100 µM (inactive)	> 100 µM (inactive)	> 100 µM (inactive)	> 100 µM (inactive)	–
N#CC(NNC(=O)c1ccccc1O)c1ccccc1O (stereo not given)	3.26 µM (inactive)	–	2.38 µM (inactive)	4.65 µM (inactive)	32.8 µM (inactive)	18.6 µM (inactive)	38.3 µM (inactive)	–	–
Cc1ccc(S(=O)(=O)N/N=C(\c2nc3ccc(Cl)cc3[nH]c2=O)C(O)c2ccco2)cc1 (stereo not given)	> 100 µM (inactive)	22.3 µM (inactive)	> 100 µM (inactive)	> 100 µM (inactive)	> 100 µM (inactive)	> 100 µM (inactive)	–	–	–
Cc1cn(C2CC(O)C(COC(=O)c3ccccc3)O2)c(=O)[nH]c1=O (stereo not given)	> 100 µM (inactive)	–	> 100 µM (inactive)	> 100 µM (inactive)	> 100 µM (inactive)	> 100 µM (inactive)	> 100 µM (inactive)	> 100 µM (inactive)	> 100 µM (inactive)
CC(C)(C)C(=O)/C=C/c1ccc(Oc2ccccc2)cc1	15 µM (inactive)	–	–	19.3 µM (inactive)	17.2 µM (inactive)	13.2 µM (inactive)	25.5 µM (inactive)	15.2 µM (inactive)	–
COc1ccc(S(=O)(=O)N/N=C/C(=O)O)cc1	> 906 µM (inactive)	490 µM (inactive)	518 µM (inactive)	> 1060 µM (inactive)	> 1190 µM (inactive)	–	830 µM (inactive)	8.09 µM (inactive)	–
Cn1c(=O)c2nc3sc4ccccc4c(=N)n3c2n(C)c1=O	> 100 µM (inactive)	> 100 µM (inactive)	> 100 µM (inactive)	> 100 µM (inactive)	–	> 100 µM (inactive)	> 100 µM (inactive)	> 100 µM (inactive)	> 100 µM (inactive)
CC1=C(C(=O)NCc2ccccc2)C(c2ccccc2[N+](=O)[O-])C(C(=O)NCc2ccccc2)=C(C)N1	6.73 µM (inactive)	12 µM (inactive)	10.6 µM (inactive)	20.3 µM (inactive)	16.5 µM (inactive)	10.7 µM (inactive)	11.8 µM (inactive)	18 µM (inactive)	15.4 µM (inactive)
